The record followed here is patent US9137992B2, “Spinosyn-producing polyketide synthases” (DOW AGROSCIENCES LLC, priority 2002, dated 2015).

Data set [1] concerns beet armyworm (Spodoptera exigua) larvae. Nature of the data set: Topical assay on beet armyworm larvae. The conditions noted are these: acetone solution, 1 microg/larva, six larvae, mortality at end of two-day period, 21° C., 60% RH. The data set is classed as in vivo. The procedure: (§1) Biological activity of the compounds of the invention was shown by a topical assay in which the compound was applied to laboratory-reared larvae (mean weight 22 mg) at the rate of 1 microg/larva. Each compound was applied, in an acetone solution (1 mg/mL), along the dorsum of six tobacco budworm (Heliothis virescens) larvae and six beet armyworm (Spodoptera exigua) larvae. Treated larvae were then held for two days at 21° C., 60% RH in six-well plastic culture plates. Larvae were each supplied with a 1 cm^3 of agar-based Lepidoptera diet for sustenance during the two-day post-exposure interval. Percent mortality was determined at the end of a two-day period (Table 18).

Data set [2] concerns insect. Nature of the data set: Insect control assays. The following applies: in vivo.
In data set [3] the test system is tobacco budworm (Heliothis virescens) larvae. Nature of the data set: Topical assay on tobacco budworm larvae. The data set is classed as in vivo. The conditions noted are these: acetone solution, 1 microg/larva, six larvae, mortality at end of two-day period, 21° C., 60% RH. On the procedure: as §1

Regarding `CO[C@@H]1[C@@H](OC)[C@H](C)O[C@@H](O[C@H]2C[C@H]3[C@@H]4C=C5C(=O)[C@H](C)[C@@H](O[C@H]6CC[C@H](N(C)C)[C@@H](C)O6)CCC[C@H](C(C)C)OC(=O)C[C@H]5[C@@H]4C=C[C@@H]3C2)[C@@H]1OC` [Compound 9, 21-desethyl-21-isopropyl spinosyn A], the “Beet Armyworm Mortality (%)” value in data set [1] is given as 100%. For the same compound, the “activity in insect control assays” value in data set [2] is reported as “active”. Besides, the “Tobacco Budworm Mortality (%)” value in data set [3] stood at 100%.

As to `CO[C@@H]1[C@@H](OC)[C@H](C)O[C@@H](O[C@H]2C[C@H]3[C@@H]4C=C5C(=O)[C@H](C)[C@@H](O[C@H]6CC[C@H](N(C)C)[C@@H](C)O6)CCC[C@@H](C6CCC6)OC(=O)C[C@H]5[C@@H]4C=C[C@@H]3C2)[C@@H]1OC` [Compound 3, 21-desethyl-21-cyclobutyl spinosyn A], the “Beet Armyworm Mortality (%)” value in data set [1] was determined as 83%. For the same compound, in data set [3], the “Tobacco Budworm Mortality (%)” value is 83%.

In the case of `CCC[C@H]1CCC[C@H](O[C@H]2CC[C@H](N(C)C)[C@@H](C)O2)[C@@H](C)C(=O)C2=C[C@@H]3[C@@H](C=C[C@@H]4C[C@@H](O[C@@H]5O[C@@H](C)[C@H](OC)[C@@H](OC)[C@H]5OC)C[C@@H]34)[C@@H]2CC(=O)O1` [21-desethyl-21-n-propyl spinosyn A], the “activity in insect control assays” value in data set [2] is “active”.

As for `CO[C@@H]1[C@@H](OC)[C@H](C)O[C@@H](O[C@H]2C[C@H]3[C@@H]4C=C5C(=O)[C@H](C)[C@@H](O[C@H]6CC[C@H](N(C)C)[C@@H](C)O6)CCC[C@@H](C6CC6)OC(=O)C[C@H]5[C@@H]4C=C[C@@H]3C2)[C@@H]1OC` [Compound 1, 21-desethyl-21-cyclopropyl spinosyn A], the “Beet Armyworm Mortality (%)” value in data set [1] turned out to be 33%. For the same compound, in data set [3], the “Tobacco Budworm Mortality (%)” value worked out at 100%.

Turning to `CCC[C@H]1CCC[C@H](O[C@H]2CC[C@H](N(C)C)[C@@H](C)O2)[C@@H](C)C(=O)C2=C[C@@H]3[C@@H](C=C[C@@H]4C[C@@H](O[C@@H]5O[C@@H](C)[C@H](OC)[C@@H](OC)[C@H]5OC)C[C@@H]34)[C@@H]2CC(=O)O1` [Compound 23, 21-desethyl-21-n-propyl spinosyn A], the “Beet Armyworm Mortality (%)” value in data set [1] worked out at 100%. For the same compound, the “Tobacco Budworm Mortality (%)” value in data set [3] is 100%.

Take `CO[C@@H]1[C@@H](OC)[C@H](C)O[C@@H](O[C@H]2C[C@H]3[C@@H]4C=C5C(=O)[C@H](C)[C@@H](O[C@H]6CC[C@H](N(C)C)[C@@H](C)O6)CCC[C@H](C6CCC6)OC(=O)C[C@H]5[C@@H]4C=C(C)[C@@H]3C2)[C@@H]1OC` [Compound 4, 21-desethyl-21-cyclobutyl spinosyn D]: the “Beet Armyworm Mortality (%)” value in data set [1] is listed as 83%. Also, the “Tobacco Budworm Mortality (%)” value in data set [3] stood at 100%.

As to `CO[C@@H]1[C@@H](OC)[C@H](C)O[C@@H](O[C@@H]2C[C@H]3CC[C@@H]4[C@@H](C=C5C(=O)[C@H](C)[C@@H](O[C@H]6CC[C@H](N(C)C)[C@@H](C)O6)CCC[C@H](C6CCC6)OC(=O)C[C@H]54)[C@@H]3C2)[C@@H]1OC` [Compound 8, 5,6-dihydro-21-desethyl-21-cyclobutyl spinosyn A], the “Beet Armyworm Mortality (%)” value in data set [1] worked out at 83%. The “Tobacco Budworm Mortality (%)” value in data set [3] is on record as 100%.
